From ChEMBL document CHEMBL1149400, “Tethering identifies fragment that yields potent inhibitors of human caspase-1” (Bioorg Med Chem Lett, 2006)
Residues, ends and D or L forms follow the SMILES beside them. *: point of attachment. Cbz = O=C(OCc1ccccc1)*

Tests used:
[1] = system: PBMC; test: Inhibition of IL1-beta production in PBMC; format: functional, cell-based; settings: Homo sapiens
[2] = target: T1, Caspase-1 (Homo sapiens, UniProt P29466); test: Inhibitory activity against human Caspase 1
T1 sequence (P29466 whole entry): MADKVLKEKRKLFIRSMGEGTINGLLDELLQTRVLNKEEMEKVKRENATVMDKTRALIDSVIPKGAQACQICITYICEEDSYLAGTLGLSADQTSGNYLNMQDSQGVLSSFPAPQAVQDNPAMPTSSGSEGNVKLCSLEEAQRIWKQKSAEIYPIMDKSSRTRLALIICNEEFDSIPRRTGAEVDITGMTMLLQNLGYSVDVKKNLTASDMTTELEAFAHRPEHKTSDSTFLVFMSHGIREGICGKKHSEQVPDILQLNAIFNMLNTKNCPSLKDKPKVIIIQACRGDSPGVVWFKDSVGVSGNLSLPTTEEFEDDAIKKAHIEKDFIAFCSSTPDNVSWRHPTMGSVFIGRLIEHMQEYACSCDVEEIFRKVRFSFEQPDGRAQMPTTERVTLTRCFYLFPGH

SMILES	Ki [2] [nM]	EC50 [1] [nM]
CC(C)[C@H](NC(=O)[C@H](Cc1ccc(O)cc1)NC(=O)OCc1ccccc1)C(=O)N[C@@H](C)C(=O)N[C@H](C=O)CC(=O)O	180	3900
O=C[C@H](CC(=O)O)NC(=O)c1cc(NC(=O)c2ccc(Nc3cnc4ccccc4n3)cc2)cs1	260	–
O=C[C@H](CC(=O)O)NC(=O)CCCCCNC(=O)c1ccc(Oc2cnc3ccccc3n2)cc1	2400	27000
O=C[C@H](CC(=O)O)NC(=O)CCCCCC(=O)Nc1ccc(Nc2cnc3ccccc3n2)cc1	2100	–
O=C[C@H](CC(=O)O)NC(=O)c1ccc(CNC(=O)c2ccc(Nc3cnc4ccccc4n3)cc2)cc1	100	–
O=C[C@H](CC(=O)O)NC(=O)CCCNC(=O)c1ccc(Nc2cnc3ccccc3n2)cc1	5200	–
O=C[C@H](CC(=O)O)NC(=O)C(CCCCNC(=O)c1ccc(Oc2cnc3ccccc3n2)cc1)c1cccs1 (some centres not stated)	–	12400
CC(C)[C@H](NC(=O)c1ccc(Nc2cnc3ccccc3n2)cc1)C(=O)N[C@@H](C)C(=O)N[C@H](C=O)CC(=O)O	4	–
O=C[C@H](CC(=O)O)NC(=O)c1ccc(CNC(=O)c2ccc(Nc3cnc4ccccc4n3)cc2)s1	35	–
O=C[C@H](CC(=O)O)NC(=O)c1ccc(CNC(=O)c2ccc(Nc3cnc4ccccc4n3)cc2)nc1	5	–
O=C[C@H](CC(=O)O)NC(=O)Cc1ccc(CNC(=O)c2ccc(Nc3cnc4ccccc4n3)cc2)s1	120	–
O=C[C@H](CC(=O)O)NC(=O)c1cnc(CNC(=O)c2ccc(Nc3cnc4ccccc4n3)cc2)cn1	1000	–
Cc1cc(C(=O)NCCCCCC(=O)N[C@H](C=O)CC(=O)O)ccc1Nc1cnc2ccccc2n1	320	7700
O=C[C@H](CC(=O)O)NC(=O)CCCCCCNC(=O)c1ccc(Nc2cnc3ccccc3n2)cc1	2600	–
O=C[C@H](CC(=O)O)NC(=O)[C@H]1CC[C@H](CNC(=O)c2ccc(Nc3cnc4ccccc4n3)cc2)CC1	1950	–
O=C[C@H](CC(=O)O)NC(=O)c1csc(CNC(=O)c2ccc(Nc3cnc4ccccc4n3)cc2)c1	120	–
O=C[C@H](CC(=O)O)NC(=O)CCCCCNC(=O)c1ccc(Nc2cnc3ccccc3n2)cc1	190	4200
O=C[C@H](CC(=O)O)NC(=O)c1ccc(CNC(=O)c2ccc(Nc3cnc4ccccc4n3)cc2)o1	2100	–
O=C[C@H](CC(=O)O)NC(=O)CCCCCNC(=O)c1ccc(Nc2cnccn2)cc1	37000	> 200000
CC(C)[C@H](NC(=O)OCc1ccccc1)C(=O)N[C@@H](C)C(=O)N[C@H](C=O)CC(=O)O (Cbz-Val-Ala-Asp-aldehyde)	8	–

Second part, led by results:

Ki [2] [nM]	SMILES	EC50 [1] [nM]
54	O=C[C@H](CC(=O)O)NC(=O)C(CCCCNC(=O)c1ccc(Nc2cncc(Cl)n2)cc1)c1cccs1 (some centres not stated)	–
2800	O=C[C@H](CC(=O)O)NC(=O)CCCCNC(=O)c1ccc(Nc2cnc3ccccc3n2)cc1	–
4	Cc1cc(C(=O)NCCCCC(C(=O)N[C@H](C=O)CC(=O)O)c2cccs2)ccc1Nc1cnc2ccccc2n1 (some centres not stated)	7700
7	O=C[C@H](CC(=O)O)NC(=O)C(CCCCNC(=O)c1ccc(Nc2cnc3ccccc3n2)cc1)c1cccs1 (some centres not stated)	20500
8	O=C[C@H](CC(=O)O)NC(=O)C(CCCCNC(=O)c1ccc(Nc2cnc3ccccc3n2)cc1)c1ccccc1F (some centres not stated)	–
16	CCC(CCCCNC(=O)c1ccc(Nc2cnc3ccccc3n2)cc1)C(=O)N[C@H](C=O)CC(=O)O (some centres not stated)	–
5	Cc1ccc2nc(Nc3ccc(C(=O)NCCCCC(C(=O)N[C@H](C=O)CC(=O)O)c4cccs4)cc3)cnc2c1 (some centres not stated)	–
100	O=C[C@H](CC(=O)O)NC(=O)C(CCCCNC(=O)c1ccc(Nc2cnccn2)cc1)c1cccs1 (some centres not stated)	20000
5	O=C[C@H](CC(=O)O)NC(=O)C(CCCCNC(=O)c1ccc(Nc2cnc3ccccc3n2)cc1)c1ccccc1 (some centres not stated)	–
